Experiments:
EP4 = EP4 (Homo sapiens (Human), UniProt P35408); test: hEP4 cAMP assay (BT549 breast cancer cells, HTRF cAMP); format: cell-based; conditions: antagonistic activity; mean values where measured multiple times
Protocol: Plate is pre-incubated 45 minutes at room temperature. Subsequently, 2.5 microliters of PGE2 (final conc. 6 nM) are transferred into the assay plate. Plate is incubated 30 minutes at room temperature.

EP2 = EP2 (Homo sapiens (Human), UniProt P43116);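 further: antagonism of PGE2-stimulated cAMP accumulation in SF295 human glioblastoma cells with endogenous EP2, cAMP read by HTRF, expressed relative to DMSO control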
Chain of EP2 (P43116 whole entry): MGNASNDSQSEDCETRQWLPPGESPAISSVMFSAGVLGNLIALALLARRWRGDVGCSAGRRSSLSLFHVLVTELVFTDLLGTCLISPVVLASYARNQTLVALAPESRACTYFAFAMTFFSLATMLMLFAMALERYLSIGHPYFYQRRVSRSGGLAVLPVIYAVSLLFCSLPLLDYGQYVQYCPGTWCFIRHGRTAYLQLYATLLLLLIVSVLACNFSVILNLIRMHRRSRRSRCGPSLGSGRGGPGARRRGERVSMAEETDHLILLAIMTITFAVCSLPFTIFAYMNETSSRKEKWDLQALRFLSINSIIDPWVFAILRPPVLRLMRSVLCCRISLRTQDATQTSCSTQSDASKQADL

Chain of EP4 (P35408 whole entry): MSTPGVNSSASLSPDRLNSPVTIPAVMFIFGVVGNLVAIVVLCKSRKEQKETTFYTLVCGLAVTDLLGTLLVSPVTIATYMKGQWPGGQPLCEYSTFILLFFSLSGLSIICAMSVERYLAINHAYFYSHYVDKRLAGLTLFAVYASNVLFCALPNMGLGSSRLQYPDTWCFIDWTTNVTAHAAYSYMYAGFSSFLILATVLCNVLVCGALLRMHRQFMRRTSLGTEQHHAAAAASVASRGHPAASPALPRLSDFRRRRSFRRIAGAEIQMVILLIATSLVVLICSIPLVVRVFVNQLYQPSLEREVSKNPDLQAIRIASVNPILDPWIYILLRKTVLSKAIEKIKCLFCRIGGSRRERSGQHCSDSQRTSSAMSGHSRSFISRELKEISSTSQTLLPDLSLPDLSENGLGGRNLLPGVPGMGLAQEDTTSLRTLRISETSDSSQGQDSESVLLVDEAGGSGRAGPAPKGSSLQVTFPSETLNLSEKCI

Structure (SMILES)	IC50 (EP4) [nM]	IC50 (EP2) [nM]
CCOc1cc(-c2cc(NCCn3c(C)cc4c(OC)cc(F)cc43)nc(C(F)(F)F)n2)sc1C(=O)O [compound 635]	186	50
CCS(=O)(=O)Nc1cc(-c2cc(NCCn3c(C)cc4c(C)ccc(F)c43)ncn2)ccc1C(=O)O [compound 602]	805	163
Cc1cc(F)cc2c1cc(C)n2CCNc1cc(-c2ccc3ccncc3c2)ncn1 [compound 731]	276	36
CCCOc1cc(-c2cc(NCCn3c(C)cc4c(OC)cc(F)cc43)ncn2)sc1C(=O)O [compound 674]	6	2
Cc1cc2c(Cl)cc(Cl)cc2n1CCNc1cc(-c2ccc(C(=O)O)c(CC(C)C)c2)ncn1 [compound 418]	691	74
COc1ccc(F)c2c1cc(C)n2CCNc1cc(-c2ccc(-c3cnc(N)o3)cc2)ncn1 [compound 573]	21	7
CCCOc1cc(-c2cc(NCCn3c(C)cc4c(F)cc(F)c(F)c43)ncn2)cc(Cl)c1C(=O)O [compound 620]	561	6
CCOc1cc(-c2cc(NCCn3c(C)cc4c(OC)ccc(Cl)c43)ncn2)cc(Cl)c1C(=O)O [compound 488]	219	70
CCOc1cc(-c2cc(NCCn3c(C)cc4c(OC)ccc(Cl)c43)ncn2)cc(CC)c1C(=O)O [compound 617]	952	60
COc1ccc(F)c2c1cc(C)n2CCNc1cc(-c2ccc(-c3onc(C)c3C(=O)O)cc2)ncn1 [compound 596]	222	10
COc1ccc(F)c2c1cc(C)n2CCNc1cc(-c2ccc(-c3cnc(CCC(=O)O)o3)cc2)ncn1 [compound 646]	312	48
COc1ccc(F)c2c1cc(C)n2CCNc1cc(-c2ccc(C(=O)NCCN(C)C)cc2)ncn1 [compound 549]	865	131
CCCOc1cc(-c2cc(NCCn3c(C)cc4c(OC)ccc(F)c43)ncn2)cc(Cl)c1C(=O)O [compound 609]	42	10
CCCc1cc(-c2cc(NCCn3c(C)cc4c(OC)cccc43)ncn2)cc(Cl)c1C(=O)O [compound 444]	94	7
Cc1cc(F)cc2c1cc(C)n2CCNc1cc(-c2ccc3ncccc3c2)ncn1 [compound 732]	341	41
CNS(=O)(=O)c1ccc(-c2cc(NCCn3c(C)cc4c(C)ccc(F)c43)ncn2)cc1C(F)(F)F [compound 563]	601	111
COc1cc(F)cc2c1cc(C)n2CCNc1cc(-c2ccc(-c3oc(CCC(=O)O)nc3C)cc2)ncn1 [compound 651]	257	166
COc1cc(F)c(F)c2c1cc(C)n2CCNc1cc(-c2ccc(-c3oncc3C)cc2)ncn1 [compound 738]	177	63
CCOc1cc(-c2cc(NCCn3c(C)cc4c(OC)ccc(F)c43)ncn2)ccc1CNCC(C)C [compound 586]	865	729

Structure (SMILES)	IC50 (EP4) [nM]	IC50 (EP2) [nM]
Cc1cnoc1-c1ccc(-c2cc(NCCn3c(C)cc4c(C)ccc(F)c43)ncn2)cc1 [compound 735]	620	93
COc1ccc(Cl)c2c1cc(C)n2CCNc1cc(-c2ccc(C(=O)O)c(OCC(C)C)c2)ncn1 [compound 614]	193	12
COc1cc(F)cc2c1cc(C)n2CCNc1cc(-c2ccc(-c3cc(C)no3)cc2)ncn1 [compound 715, [2-(6-Fluoro-4-methoxy-2-methyl-indol-1-yl)-ethyl]-{6-[4-(3-methyl-isoxazol-5-yl)-phenyl]-pyrimidin-4-yl}-amine]	240	16
CCCOc1cc(-c2cc(NCCn3c(C)cc4c(OC)ccc(F)c43)ncn2)sc1C(=O)O [compound 677]	12	2
CCc1cc(-c2cc(NCCn3c(C)cc4c(OC)ccc(F)c43)ncn2)cc(F)c1C(=O)O [compound 437]	201	15
Cc1ccc(F)c2c1cc(C)n2CCNc1cc(-c2ccc(C(=O)O)c(OC(F)(F)F)c2)ncn1 [compound 508]	583	37
COc1ccc(F)c2c1cc(C)n2CCNc1cc(-c2cc(OC(C)C)c(C(=O)O)s2)ncn1 [compound 675]	7	4
Cc1cc(F)cc2c1cc(C)n2CCNc1cc(-c2ccc(-c3nc(C(=O)O)cs3)cc2)ncn1 [compound 545]	119	29
CCCc1cc(-c2cc(NCCn3c(C)cc4c(C)cc(F)cc43)ncn2)cc(Cl)c1C(=O)O [compound 412]	79	36
Cc1ccc(Cl)c2c1cc(C)n2CCNc1cc(-c2ccc(C(=O)O)c(S/C=C/F)c2)ncn1 [Example 788, 4-{6-[2-(7-Chloro-2,4-dimethyl-indol-1-yl)-ethylamino]-pyrimidin-4-yl}-2-((E)-2-fluoro-vinylsulfanyl)-benzoic acid]	925	49
CCOc1cc(-c2cc(NCCn3c(C)cc4c(OC)cc(F)c(F)c43)ncn2)ccc1C(=O)O [compound 487]	76	49
Cc1nc(NCCn2c(C)cc3c(C)cc(F)cc32)cc(-c2cc(C(F)(F)F)c(C(=O)O)s2)n1 [compound 423]	35	44
COc1cc(-c2cc(NCCn3c(C)cc4c(OC)ccc(Cl)c43)ncn2)ccc1-c1nnn[nH]1 [compound 684, [2-(7-Chloro-4-methoxy-2-methyl-indol-1-yl)-ethyl]-{6-[3-methoxy-4-(1H-tetrazol-5-yl)-phenyl]-pyrimidin-4-yl}-amine]	471	36
Cc1nnc(-c2ccc(-c3cc(NCCn4c(C)cc5c(C)ccc(F)c54)ncn3)cc2)o1 [compound 553]	192	102
CCc1cc(-c2cc(NCCn3c(C)cc4c(OC)cc(F)cc43)ncn2)cc(Cl)c1C(=O)O [compound 438]	106	64
COc1ccc(F)c2c1cc(C)n2CCNc1cc(-c2ccc(C(=O)CC#N)cc2)ncn1 [compound 710, 3-(4-{6-[2-(7-Fluoro-4-methoxy-2-methyl-indol-1-yl)-ethylamino]-pyrimidin-4-yl}-phenyl)-3-oxo-propionitrile]	373	15
CCCCOc1cc(-c2cc(NCCn3c(C)cc4c(C)ccc(F)c43)ncn2)ccc1C(=O)O [compound 533]	88	3
CCCOc1cc(-c2cc(NCCn3c(C)cc4c(OC)ccc(Cl)c43)ncn2)ccc1C(=O)O [compound 495]	350	21
Cc1cc(F)c(F)c2c1cc(C)n2CCNc1cc(-c2cc(Cl)c(C(=O)O)c(OCC(C)C)c2)ncn1 [compound 694]	120	49

Structure (SMILES)	IC50 (EP4) [nM]	IC50 (EP2) [nM]
CCCOc1cc(-c2cc(NCCn3c(C)cc4c(C)ccc(F)c43)ncn2)ccc1C(=O)O [compound 441]	113	11
CCOc1cc(-c2cc(NCCn3c(C)cc4c(C)ccc(F)c43)ncn2)cc(F)c1C(=O)O [compound 435]	159	13
CCCc1cc(-c2cc(NCCn3c(C)cc4c(OC)cc(Cl)cc43)ncn2)cc(Cl)c1C(=O)O [compound 518]	40	11
COc1cc(F)c(F)c2c1cc(C)n2CCNc1cc(-c2ccc(-c3cnc(N)o3)cc2)ncn1 [compound 639]	37	23
CCOc1cc(-c2cc(NCCn3c(C)cc4c(OC)cc(Cl)cc43)ncn2)ccc1C(=O)O [compound 402]	159	10
COc1cc(-c2cc(NCCn3c(C)cc4c(OC)cccc43)ncn2)ccc1-c1nnn[nH]1 [compound 670, [2-(4-Methoxy-2-methyl-indol-1-yl)-ethyl]-{6-[3-methoxy-4-(1H-tetrazol-5-yl)-phenyl]-pyrimidin-4-yl}-amine]	406	8
CCCOc1cc(-c2cc(NCCn3c(C)cc4c(C)cc(F)c(F)c43)ncn2)cc(F)c1C(=O)O [compound 627]	197	48
Cc1cc(F)c(F)c2c1cc(C)n2CCNc1cc(-c2ccc(-c3cnc(N)o3)cc2)ncn1 [compound 577]	118	114
Cc1nc(CCC(=O)O)oc1-c1ccc(-c2cc(NCCn3c(C)cc4c(C)cc(F)cc43)ncn2)cc1 [compound 647]	302	146
CCCc1cc(-c2cc(NCCn3c(C)cc4c(OC)ccc(F)c43)ncn2)cc(F)c1C(=O)O [compound 515]	69	8
CCOc1cc(-c2cc(NCCn3c(C)cc4c(C)cc(F)cc43)nc(C)n2)ccc1C(=O)O [compound 440]	905	57
CCCc1cc(-c2cc(NCCn3c(C)cc4c(C)ccc(F)c43)ncn2)cc(Cl)c1C(=O)O [compound 413]	55	29
CCNc1cc(-c2cc(NCCn3c(C)cc4c(OC)cccc43)ncn2)cc(F)c1C(=O)O [compound 398]	178	3
Cc1nc(NCCn2c(C)cc3c(C)cc(F)cc32)cc(-c2ccc(C(=O)O)c(CC(C)C)c2)n1 [compound 503]	499	58
COc1ccc(F)c2c1cc(C)n2CCNc1cc(-c2ccc(-c3nnc(C)o3)c(F)c2)ncn1 [compound 455]	154	74
Cc1nc(CCC(=O)O)oc1-c1ccc(-c2cc(NCCn3c(C)cc4c(C)cc(F)c(F)c43)ncn2)cc1 [compound 653]	527	428
COc1ccc(F)c2c1cc(C)n2CCNc1cc(-c2ccc(N3CCCS3(=O)=O)cc2)ncn1 [compound 469]	667	68
CCCCOc1cc(-c2cc(NCCn3c(C)cc4c(OC)ccc(F)c43)ncn2)sc1C(=O)O [compound 673]	3	2
